# Reference: patent US20150141381A1, “TETRACYCLINE COMPOUNDS HAVING TARGET THERAPEUTIC ACTIVITIES” (Paratek Pharmaceuticals, Inc., priority 2001, published 2015)
# Where two headings read alike, the source gives them in different places.
# Experiments:
# [1] = tested on: S. aureus RN450; assay: In Vitro Anti-Bacterial Activity Assay (MIC), gram positive; format: cell-based; details: Staphylococcus aureus, RN450, 18 h, read-out: Antibiotic Activity Gram +
# [2] = tested on: E. coli mL308 225; assay: In Vitro Anti-Bacterial Activity Assay (MIC), gram negative; format: cell-based; details: Escherichia coli, ML308225, 18 h, read-out: Antibiotic Activity Gram −
SMILES,"MIC ([1]; MIC class, Table 3)","MIC ([2]; MIC class, Table 3)",MIC [1],MIC [2]
CN(C)Cc1cc(-c2ccc(O)c3c2C[C@H]2C[C@H]4[C@H](N(C)C)C(O)=C(C(N)=O)C(=O)[C@@]4(O)C(O)=C2C3=O)ccc1F [OQ],< 4 µg/mL,< 4 µg/mL,–,–
CCOC(=O)COC1=C(C(N)=O)C(=O)[C@@]2(O)C(O)=C3C(=O)c4c(O)cccc4C[C@H]3C[C@H]2[C@@H]1N(C)C [OR],> 4 µg/mL,> 4 µg/mL,–,–
CCCCOc1ccc(I)c2c1C(=O)C1=C(O)[C@]3(O)C(=O)C(C(N)=O)=C(O)[C@@H](N(C)C)[C@@H]3C[C@@H]1C2 [OS],> 4 µg/mL,> 4 µg/mL,–,–
CN(C)[C@@H]1C(OCc2ccccc2)=C(C(N)=O)C(=O)[C@@]2(O)C(O)=C3C(=O)c4c(O)ccc(-c5ccc(C(F)(F)F)cc5)c4C[C@H]3C[C@@H]12 [OU],< 4 µg/mL,> 4 µg/mL,–,–
CCOC(=O)COC1=C(C(N)=O)C(=O)[C@@]2(O)C(O)=C3C(=O)c4c(O)ccc(I)c4C[C@H]3C[C@H]2[C@@H]1N(C)C [OY],< 4 µg/mL,> 4 µg/mL,–,–
C[C@H]1c2ccc(C(C)(C)C)c(O)c2C(=O)C2=C(O)[C@]3(O)C(=O)C(C(N)=O)=C(O)[C@@H](N(C)C)[C@@H]3[C@@H](O)[C@@H]21 [O],< 4 µg/mL,> 4 µg/mL,–,–
Cc1cc(-c2ccc(O)c3c2C[C@H]2C[C@H]4[C@H](N(C)C)C(O)=C(C(N)=O)C(=O)[C@@]4(O)C(O)=C2C3=O)cc(C)n1 [PD],< 4 µg/mL,< 4 µg/mL,–,–
CN(C)[C@@H]1C(O)=C(C(N)=O)C(=O)[C@@]2(O)C(O)=C3C(=O)c4c(O)ccc(-c5cnc(N)nc5)c4C[C@H]3C[C@@H]12 [PF],< 4 µg/mL,< 4 µg/mL,–,–
CN(C)c1cc(CNCc2ccc(OC(F)(F)F)cc2)c(O)c2c1C[C@H]1C[C@H]3[C@H](N(C)C)C(O)=C(C(N)=O)C(=O)[C@@]3(O)C(O)=C1C2=O [PJ],< 4 µg/mL,> 4 µg/mL,–,–
CON(C)CC(=O)Nc1ccc(-c2ccc(O)c3c2C[C@H]2C[C@H]4[C@@H](N(C)C)C(O)=C(C(N)=O)C(=O)[C@@]4(O)C(O)=C2C3=O)cc1 [PN],< 4 µg/mL,> 4 µg/mL,–,–
CN(C)[C@@H]1C(O)=C(C(N)=O)C(=O)[C@@]2(O)C(O)=C3C(=O)c4c(O)c(CN5CCCCC5)cc(-c5ccoc5)c4C[C@H]3C[C@@H]12 [PQ],< 4 µg/mL,< 4 µg/mL,–,–
CN(C)[C@H]1C(O)=C(C(N)=O)C(=O)[C@@]2(O)C(O)=C3C(=O)c4c(O)ccc(-c5ncccn5)c4C[C@H]3C[C@@H]12 [PX],< 4 µg/mL,> 4 µg/mL,–,–
CN(C)[C@@H]1C(O)=C(C(N)=O)C(=O)[C@@]2(O)C(O)=C3C(=O)c4c(O)c(CN5CCOCC5)cc(-c5ccoc5)c4C[C@H]3C[C@@H]12 [QA],< 4 µg/mL,< 4 µg/mL,–,–
CN(C)/C=N/c1ccc(O)c2c1C[C@H]1C[C@H]3[C@@H](N(C)C)C(O)=C(C(N)=O)C(=O)[C@@]3(O)C(O)=C1C2=O [QC],< 4 µg/mL,< 4 µg/mL,–,–
C[C@H]1c2cccc(O)c2C(=O)C2=C(O)[C@]3(O)C(=O)C(C(N)=O)=C(O)[C@@H](N(C)C)[C@@H]3[C@@H](OC(=O)CCN3CCCC3)[C@@H]21 [R],< 4 µg/mL,< 4 µg/mL,–,–
CN(C)c1cc(NC(=O)Nc2cccc3ccccc23)c(O)c2c1C[C@H]1C[C@H]3[C@H](N(C)C)C(O)=C(C(N)=O)C(=O)[C@@]3(O)C(O)=C1C2=O [S],< 4 µg/mL,> 4 µg/mL,–,–
C[C@H]1c2cccc(O)c2C(=O)C2=C(O)[C@]3(O)C(=O)C(C(N)=O)=C(O)[C@@H](N(C)C)[C@@H]3[C@@H](OC(=O)C34CC5CC(CC(C5)C3)C4)[C@@H]21 [T],< 4 µg/mL,> 4 µg/mL,–,–
C[C@H]1c2ccc(NC(=O)Oc3ccc(F)cc3)c(O)c2C(=O)C2=C(O)[C@]3(O)C(=O)C(C(N)=O)=C(O)[C@@H](N(C)C)[C@@H]3[C@@H](O)[C@@H]21 [V],–,–,> 4 µg/mL,> 4 µg/mL
CN(C)c1cc(-c2cccs2)c(O)c2c1C[C@H]1C[C@H]3[C@H](N(C)C)C(O)=C(C(N)=O)C(=O)[C@@]3(O)C(O)=C1C2=O [W],< 4 µg/mL,> 4 µg/mL,–,–
CN(C)c1cc(-c2ccc3c(c2)OCO3)c(O)c2c1C[C@H]1C[C@H]3[C@H](N(C)C)C(O)=C(C(N)=O)C(=O)[C@@]3(O)C(O)=C1C2=O [Y],< 4 µg/mL,> 4 µg/mL,–,–
